Experimental findings from PubChem BioAssay AID1996 are described below.

Structures are written as SMILES. Converted amounts (≈) assume the structure as drawn. Where only a bound is given, the exact number is not on record here.

The conditions of this data set: buffer; pH 7.4; 200.0 µM.
`Nc1sc2c(c1C(=O)NCCc1ccccc1)CCC2` displayed a solubility (kinetic) of 17 µg/mL (≈ 59.4 µM).

With `O=C(COC(=O)c1cc2ccccc2cc1O)NCc1ccccc1`, the solubility (kinetic) was found to be 3 µg/mL (≈ 8.95 µM).

As to `O=C(O)CSCc1nc2cccnc2n1C1CCCCC1`, the kinetic solubility came to 42.1 µg/mL (≈ 138 µM).

On to `N#C/C(=C\Nc1ccc(Cl)cc1)S(=O)(=O)c1ccccn1`, for which the kinetic solubility was 8.7 µg/mL (≈ 27.2 µM).

In turn, `CCC1CN(C(=O)NCc2ccc(C)cc2)c2cc(C)ccc2O1` (configuration not stated) came in with a solubility (kinetic) of 0.5 µg/mL (≈ 1.54 µM).

In turn, `O=C(c1ccccn1)c1ccc2ccccc2n1` showed a solubility (kinetic) of 28.8 µg/mL (≈ 123 µM).

`CCC(OC(=O)C1=Cc2ccccc2OC1)C(=O)NCc1ccco1` (configuration not stated) registered a kinetic solubility of 3.1 µg/mL (≈ 9.08 µM).

Turning to `CN(Cc1ccccc1)C(=O)COC(=O)c1cc(=O)[nH]c2ccccc12`, the kinetic solubility was found to be 34.4 µg/mL (≈ 98.2 µM).

`CCCC12CN3CC(C)(CN(C1)C3c1ccco1)C2=O` (configuration not stated) yielded a solubility (kinetic) of 38.9 µg/mL (≈ 142 µM).

Compound `COc1ccc(N2CC(C(=O)NC3CCSC3=O)CC2=O)cc1` (configuration not stated) registered a kinetic solubility of over 50.2 µg/mL.

With `Nc1ncc2[nH]cnc2n1`, the solubility (kinetic) was over 20.3 µg/mL.

In turn, `Cc1ccc(NC(=O)C2CCN(c3nc(C)cc(C)n3)CC2)cc1` displayed a kinetic solubility of 2.4 µg/mL (≈ 7.4 µM).

`CCN1CCN(c2ccc(S(=O)(=O)N3CCCC3)cn2)CC1` returned a solubility (kinetic) of 34.6 µg/mL (≈ 107 µM).

`O=C(O)C1CCCN1C(=O)OCC1c2ccccc2-c2ccccc21` (configuration not stated) gave a solubility (kinetic) of over 50.6 µg/mL.

Take `O=C1OC2(O)C3C4C=CC(C4)C3C(=O)N2c2ccccc21` (configuration not stated): the solubility (kinetic) is over 42.5 µg/mL.

Compound `CC(C)c1ccc(C(=O)NC(=S)Nc2ccc3[nH]c(=O)[nH]c3c2)cc1` displayed a solubility (kinetic) of 0.5 µg/mL (≈ 1.41 µM).

For `CNC(=O)CSc1nnc(-c2cnccn2)n1C`, the solubility (kinetic) was over 39.6 µg/mL.

Turning to `O=C(Nc1ccccc1)Oc1cccc(Br)c1`, the kinetic solubility amounted to 35.9 µg/mL (≈ 123 µM).

Turning to `O=C(CCc1ccccc1)N1CCN(c2ccccc2F)CC1`, the solubility (kinetic) was 45.7 µg/mL (≈ 146 µM).

`Cc1cccc(NC(=O)c2nc[nH]c2C(=O)Nc2cccc(C)c2)c1` had a kinetic solubility of 0.2 µg/mL (≈ 0.598 µM).

For `CC(C)C(NC(=O)c1ccc([N+](=O)[O-])cc1Cl)C(=O)N1CCCC1` (configuration not stated), the solubility (kinetic) was over 53.1 µg/mL.

With `O=C(c1ccc2nc[nH]c2c1)N1CCc2ccccc2C1`, the solubility (kinetic) is over 41.6 µg/mL.

With `Cc1sc(NC(=O)c2c(F)cccc2F)nc1-c1ccccc1`, the solubility (kinetic) stood at 0.6 µg/mL (≈ 1.82 µM).

Compound `Cl.Nc1cccc2c3c(oc12)CCCC3` displayed a kinetic solubility of 7.4 µg/mL.

With `Clc1cccc(OCCCCN2CCCCC2)c1`, the solubility (kinetic) is 31 µg/mL (≈ 116 µM).

`COCC(=O)N1CCCC(CNS(=O)(=O)c2ccc(OC)cc2)C1` (configuration not stated) gave a solubility (kinetic) of over 53.5 µg/mL.

The compound `O=C(COC(=O)c1ccc(O)cc1)Nc1ccc(OC(F)F)cc1` yielded a solubility (kinetic) of 29.9 µg/mL (≈ 88.7 µM).

`CC(=O)c1ccc(/C=C/c2nc3ccccc3n2C)o1` registered a kinetic solubility of over 39.9 µg/mL.

`CC(=O)Nc1ccc(Sc2ccccc2C(=O)O)cn1` gave a kinetic solubility of over 43.2 µg/mL.

For the compound `Oc1ccc2ccccc2c1CNc1ccccn1`, the solubility (kinetic) was 9.4 µg/mL (≈ 37.6 µM).

For the compound `CC(=O)Nc1ccc(OS(=O)(=O)c2ccc(Cl)cc2)cc1`, the kinetic solubility was 38.6 µg/mL (≈ 118 µM).

`Cc1cc(C)n2nc(C(=O)OCC(=O)c3ccccc3)nc2n1` came in with a solubility (kinetic) of over 46.5 µg/mL.

`CCCCNC(=S)Nc1ccccc1Cc1ccccc1`: the solubility (kinetic) is 32.5 µg/mL (≈ 109 µM).

The compound `COc1ccc(NC(=S)N(Cc2cccnc2)Cc2ccco2)cc1` yielded a kinetic solubility of 44.8 µg/mL (≈ 127 µM).

As for `O=C(Nc1ccc(F)c(Cl)c1)C1CCCC1`, the kinetic solubility is 13.5 µg/mL (≈ 55.9 µM).

The compound `CCOc1nc(C)ccc1-c1noc(-c2cccnc2)n1` returned a solubility (kinetic) of 11 µg/mL (≈ 39 µM).

`COc1cccc2[nH]c(=O)c(-c3ccccc3)cc12` displayed a kinetic solubility of 1.4 µg/mL (≈ 5.57 µM).

For the compound `CC(=O)Nc1ccc(NC(=O)c2cccc3ccccc23)cc1`, the kinetic solubility came to 1.7 µg/mL (≈ 5.59 µM).

The compound `COc1ccc(OC(C)C(=O)N(C)Cc2nc(-c3ccccc3)no2)cc1` (configuration not stated) had a solubility (kinetic) of 41 µg/mL (≈ 112 µM).

For `C=CCn1c(C)nnc1SCC(=O)NC1CC1`, the kinetic solubility was over 37.9 µg/mL.

Compound `Cc1ccc(C(=O)C(C)[n+]2cccc(C(N)=O)c2)cc1.[Br-]` (configuration not stated) yielded a solubility (kinetic) of over 52.4 µg/mL.

Take `CCCCn1c2c(c(=N)c3ccccc31)CCC2.I`: the solubility (kinetic) was over 55.2 µg/mL.

What is called solubility (kinetic) is solubility judged after dilution from a stock solution rather than from solid.
